Reference: ChEMBL document CHEMBL2203157, “5-(1,3-Benzothiazol-6-yl)-4-(4-methyl-1,3-thiazol-2-yl)-1H-imidazole derivatives as potent and selective transforming growth factor-β type I receptor inhibitors” (Bioorg Med Chem, 2012)
≈ marks a conversion by molar mass, not a printed value.

What was measured:
TGF-beta receptor type-1 [1] = target: T1, TGF-beta receptor type-1 (Homo sapiens, UniProt P36897); test: Inhibition of ALK5-mediated […]-induced Smad2/3 phosphorylation in human A549 cells preincubated for 2 hrs before addition of […] after 1 hr by fluorescence analysis; type: cell-based
T1 sequence (P36897 whole entry): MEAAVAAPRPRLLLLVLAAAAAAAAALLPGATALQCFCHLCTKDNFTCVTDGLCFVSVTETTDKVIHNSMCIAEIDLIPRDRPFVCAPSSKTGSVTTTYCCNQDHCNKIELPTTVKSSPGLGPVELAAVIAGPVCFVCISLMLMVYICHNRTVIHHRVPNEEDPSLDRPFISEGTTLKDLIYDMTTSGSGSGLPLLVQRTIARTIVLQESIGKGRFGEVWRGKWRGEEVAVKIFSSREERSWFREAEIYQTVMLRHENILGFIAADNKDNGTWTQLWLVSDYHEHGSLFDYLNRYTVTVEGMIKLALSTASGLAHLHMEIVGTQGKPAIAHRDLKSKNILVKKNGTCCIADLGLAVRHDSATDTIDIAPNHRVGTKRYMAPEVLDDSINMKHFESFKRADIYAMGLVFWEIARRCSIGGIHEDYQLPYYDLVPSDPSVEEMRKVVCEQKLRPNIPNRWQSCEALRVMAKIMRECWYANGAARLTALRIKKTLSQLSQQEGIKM

TGF-beta receptor type-1 [2] = target: T1, TGF-beta receptor type-1; test: Inhibition of human ALK5 using GST-tagged Smad3 as substrate assessed as substrate phosphorylation after 30 mins by ELISA
[3] = Solubility of the compound by HPLC analysis; type: physicochemical
Mus musculus [4] = test: Inhibition of ALK5-mediated Smad2 phosphorylation in skin of C57BL/6 mouse depilation model at 1% administered topically measured after 8 hrs by Western blot analysis; type: functional
[5] = target: Vascular endothelial growth factor receptor 2 (Homo sapiens, UniProt P35968); test: Inhibition of KDR
Mus musculus [6] = test: Inhibition of ALK5-mediated Smad2 phosphorylation in skin of C57BL/6 mouse depilation model at 3% administered topically measured after 8 hrs by Western blot analysis; type: functional

Chain of Vascular endothelial growth factor receptor 2 (P35968 whole entry): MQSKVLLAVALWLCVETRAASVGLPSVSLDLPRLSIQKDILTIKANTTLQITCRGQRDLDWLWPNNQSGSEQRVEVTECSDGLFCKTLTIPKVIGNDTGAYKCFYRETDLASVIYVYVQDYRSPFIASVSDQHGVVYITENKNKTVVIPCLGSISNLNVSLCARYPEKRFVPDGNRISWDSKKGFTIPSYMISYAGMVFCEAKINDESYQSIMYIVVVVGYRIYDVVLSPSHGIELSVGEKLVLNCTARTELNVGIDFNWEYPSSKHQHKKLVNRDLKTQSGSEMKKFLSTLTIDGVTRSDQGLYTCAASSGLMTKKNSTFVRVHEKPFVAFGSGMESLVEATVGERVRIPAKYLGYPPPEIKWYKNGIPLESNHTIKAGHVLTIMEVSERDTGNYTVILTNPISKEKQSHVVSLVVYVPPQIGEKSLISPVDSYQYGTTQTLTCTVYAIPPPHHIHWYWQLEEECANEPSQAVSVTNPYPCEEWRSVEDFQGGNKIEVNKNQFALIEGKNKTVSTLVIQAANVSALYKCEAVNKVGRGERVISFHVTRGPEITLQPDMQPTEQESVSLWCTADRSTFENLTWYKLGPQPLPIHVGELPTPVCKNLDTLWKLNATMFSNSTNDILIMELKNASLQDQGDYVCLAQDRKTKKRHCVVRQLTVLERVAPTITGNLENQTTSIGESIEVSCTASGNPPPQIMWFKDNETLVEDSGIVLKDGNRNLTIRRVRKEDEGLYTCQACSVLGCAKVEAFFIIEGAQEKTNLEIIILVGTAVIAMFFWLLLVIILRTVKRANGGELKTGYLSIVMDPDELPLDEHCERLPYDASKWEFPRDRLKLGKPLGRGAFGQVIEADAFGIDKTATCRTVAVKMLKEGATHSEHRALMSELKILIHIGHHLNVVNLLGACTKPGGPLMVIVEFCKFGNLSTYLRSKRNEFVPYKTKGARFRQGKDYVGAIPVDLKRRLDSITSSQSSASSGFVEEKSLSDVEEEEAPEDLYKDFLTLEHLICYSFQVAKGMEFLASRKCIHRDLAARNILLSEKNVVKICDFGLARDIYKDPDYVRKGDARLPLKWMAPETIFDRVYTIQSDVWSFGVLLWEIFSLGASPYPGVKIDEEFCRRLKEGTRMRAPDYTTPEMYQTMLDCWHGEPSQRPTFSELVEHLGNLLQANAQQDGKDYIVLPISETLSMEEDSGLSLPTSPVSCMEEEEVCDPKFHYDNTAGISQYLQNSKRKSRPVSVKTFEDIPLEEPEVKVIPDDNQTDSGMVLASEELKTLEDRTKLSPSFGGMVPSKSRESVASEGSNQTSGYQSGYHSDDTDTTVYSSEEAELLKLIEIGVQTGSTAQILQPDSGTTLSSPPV

Row | SMILES | IC50 (TGF-beta receptor type-1 [1]) | IC50 (TGF-beta receptor type-1 [2]) | solubility [3] | IC50 [5] | inhibition (INH) (Mus musculus [4]) | inhibition (INH) (Mus musculus [6])
1 | Cc1csc(-c2nc[nH]c2-c2ccc3ncsc3c2)n1 | 0.0087 µM | 0.0027 µM | – | – | – | –
2 | Cc1csc(-c2nc(C)[nH]c2-c2ccc3ncsc3c2)n1 | 0.017 µM | 0.0058 µM | 18.3 mg/mL (≈ 58.6 mM) | – | – | –
3 | CCCc1nc(-c2nc(C)cs2)c(-c2ccc3ncsc3c2)[nH]1 | 0.033 µM | 0.0081 µM | 14.9 mg/mL (≈ 43.8 mM) | – | – | –
4 | Cc1csc(-c2nc(C(C)C)[nH]c2-c2ccc3ncsc3c2)n1 | 0.048 µM | 0.0082 µM | – | – | – | –
5 | Cc1csc(-c2nc(CC(C)C)[nH]c2-c2ccc3ncsc3c2)n1 | 0.043 µM | 0.009 µM | – | – | – | –
6 | Cc1csc(-c2nc(C(C)(C)C)[nH]c2-c2ccc3ncsc3c2)n1 | 0.068 µM | 0.014 µM | 3.49 mg/mL (≈ 9.84 mM) | – | – | –
7 | CCCCCCc1nc(-c2nc(C)cs2)c(-c2ccc3ncsc3c2)[nH]1 | 0.12 µM | 0.007 µM | – | – | – | –
8 | Cc1csc(-c2nc(C(F)(F)F)[nH]c2-c2ccc3ncsc3c2)n1 | 0.049 µM | 0.0058 µM | 2.4 mg/mL (≈ 6.55 mM) | – | – | –
9 | Cc1csc(-c2nc(C3CC3)[nH]c2-c2ccc3ncsc3c2)n1 | 0.045 µM | 0.0088 µM | 23.6 mg/mL (≈ 69.7 mM) | – | – | –
10 | Cc1csc(-c2nc(C3CCCC3)[nH]c2-c2ccc3ncsc3c2)n1 | 0.04 µM | 0.0087 µM | 19.8 mg/mL (≈ 54 mM) | – | – | –
11 | Cc1csc(-c2nc(C3CCCCC3)[nH]c2-c2ccc3ncsc3c2)n1 | 0.075 µM | 0.012 µM | > 31.8 mg/mL | – | – | –
12 | Cc1csc(-c2nc(C3CCC(=O)CC3)[nH]c2-c2ccc3ncsc3c2)n1 | 0.089 µM | 0.023 µM | – | – | – | –
13 | Cc1csc(-c2nc(C3CCOCC3)[nH]c2-c2ccc3ncsc3c2)n1 | 0.099 µM | 0.021 µM | 26.1 mg/mL (≈ 68.2 mM) | – | – | –
14 | Cc1csc(-c2nc(C3CCNCC3)[nH]c2-c2ccc3ncsc3c2)n1 | – | 0.24 µM | – | – | – | –
15 | Cc1csc(-c2[nH]c(CN3CCCC3=O)nc2-c2ccc3ncsc3c2)n1 | 0.13 µM | 0.026 µM | – | – | – | –
16 | CCCC(=O)N(C)Cc1nc(-c2ccc3ncsc3c2)c(-c2nc(C)cs2)[nH]1 | 0.11 µM | 0.028 µM | – | – | – | –
17 | CCCCNCc1nc(-c2nc(C)cs2)c(-c2ccc3ncsc3c2)[nH]1 | 0.072 µM | 0.013 µM | – | – | – | –
18 | CCCC(=O)CCc1nc(-c2nc(C)cs2)c(-c2ccc3ncsc3c2)[nH]1 | 0.042 µM | 0.009 µM | – | – | – | –
19 | CCCCNC(=O)c1nc(-c2nc(C)cs2)c(-c2ccc3ncsc3c2)[nH]1 | 0.42 µM | 0.045 µM | – | – | – | –
20 | CCNC(=O)CCc1nc(-c2nc(C)cs2)c(-c2ccc3ncsc3c2)[nH]1 | 0.071 µM | 0.012 µM | – | – | – | –
21 | CNC(=O)CCCc1nc(-c2nc(C)cs2)c(-c2ccc3ncsc3c2)[nH]1 | 0.23 µM | 0.037 µM | – | – | – | –
22 | Cc1csc(-c2nc(CCCCC(N)=O)[nH]c2-c2ccc3ncsc3c2)n1 | 0.19 µM | 0.0083 µM | – | – | – | –
23 | CC(=O)NCCCc1nc(-c2nc(C)cs2)c(-c2ccc3ncsc3c2)[nH]1 | 0.15 µM | 0.026 µM | – | – | – | –
24 | CCCS(=O)(=O)NCc1nc(-c2nc(C)cs2)c(-c2ccc3ncsc3c2)[nH]1 | 0.15 µM | 0.017 µM | – | – | – | –
25 | Cc1csc(-c2nc(CN3CCOC3=O)[nH]c2-c2ccc3ncsc3c2)n1 | 0.092 µM | 0.0081 µM | – | – | – | –

Continued, in another order:

Row | IC50 (TGF-beta receptor type-1 [1]) | IC50 (TGF-beta receptor type-1 [2]) | solubility [3] | IC50 [5] | SMILES | inhibition (INH) (Mus musculus [4]) | inhibition (INH) (Mus musculus [6])
26 | 0.035 µM | 0.009 µM | – | – | CCc1nc(-c2nc(C)cs2)c(-c2ccc3ncsc3c2)[nH]1 | – | –
27 | 0.093 µM | 0.0072 µM | – | – | CCNC(=O)OCc1nc(-c2nc(C)cs2)c(-c2ccc3ncsc3c2)[nH]1 | – | –
28 | 0.13 µM | 0.025 µM | – | – | CCC(=O)NCCc1nc(-c2nc(C)cs2)c(-c2ccc3ncsc3c2)[nH]1 | – | –
29 | 0.13 µM | 0.011 µM | – | – | CCNC(=O)NCc1nc(-c2nc(C)cs2)c(-c2ccc3ncsc3c2)[nH]1 | – | –
30 | 0.035 µM | 0.0045 µM | – | – | CCOC(=O)NCc1nc(-c2nc(C)cs2)c(-c2ccc3ncsc3c2)[nH]1 | – | –
31 | 0.038 µM | 0.0077 µM | 3.93 mg/mL (≈ 10.2 mM) | – | COC(=O)NCc1nc(-c2nc(C)cs2)c(-c2ccc3ncsc3c2)[nH]1 | – | –
32 | 0.036 µM | 0.0073 µM | 9.8 mg/mL (≈ 23.7 mM) | – | CCCOC(=O)NCc1nc(-c2nc(C)cs2)c(-c2ccc3ncsc3c2)[nH]1 | – | –
33 | 0.074 µM | 0.0091 µM | – | – | CCCCOC(=O)NCc1nc(-c2nc(C)cs2)c(-c2ccc3ncsc3c2)[nH]1 | – | –
34 | 0.14 µM | 0.011 µM | – | – | CCCCCOC(=O)NCc1nc(-c2nc(C)cs2)c(-c2ccc3ncsc3c2)[nH]1 | – | –
35 | 0.041 µM | 0.0086 µM | 18.2 mg/mL (≈ 44 mM) | – | Cc1csc(-c2nc(CNC(=O)OC(C)C)[nH]c2-c2ccc3ncsc3c2)n1 | – | –
36 | 0.036 µM | 0.0055 µM | – | 1.08 µM | Cc1csc(-c2nc(CNC(=O)OCC(C)C)[nH]c2-c2ccc3ncsc3c2)n1 | 59% | 90%
37 | 0.079 µM | 0.0093 µM | – | – | Cc1csc(-c2nc(CNC(=O)OCC(C)(C)C)[nH]c2-c2ccc3ncsc3c2)n1 | – | –
